Source: US7078400B2, “20-HETE synthase inhibitor” (Taisho Pharmaceutical Co., Ltd., priority 1999, dated 2006)

Key:
[1] = tested on: 20-HETE synthase originated from rat kidney microsome; experiment: Inhibitory effect of 20-HETE synthase originated from rat kidney microsome; type: biochemical; conditions: for Inhibition rate (1 μM): 20-HETE production without compound set to 100%
Outline: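 Kidney microsomes from 6-week male spontaneously hypertensive rats were used with tritium-arachidonic acid and NADPH. 20-HETE was quantified by radio-HPLC on a C18 column.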

[2] = concentration at which production of 20-HETE was inhibited to 50%, rat kidney microsome
[3] = concentration at which production of 20-HETE was inhibited to 50%
[4] = 1 μM of subject compound, rat kidney microsome
[5] = concentration at which 20-HETE production was inhibited to 50%, rat kidney microsome
[6] = 1 μM of the subject compound added, rat kidney microsome

Row | Compound | IC50 [1, 2] [nM] | melting point [°C] | IC50 [1, 3] [nM] | Inhibition rate (1 μM) [1, 4] | IC50 [1, 5] [nM] | Inhibition rate (1 μM) ([1]; 1 μM of the subject compound) | Inhibition rate (1 μM) [1, 6]
1 | Cc1ccc(F)c(N/C=N/O)c1 [Comp. 43] | 168 | 123 to 124 | – | – | – | – | –
2 | CC(=O)OCCCCCOc1ccc(N/C=N/O)cc1 [Comp. 426] | – | 101.5 to 104 | 5.1 | – | – | – | –
3 | O/N=C/Nc1ccc(OCCC2CCCCC2)cc1 [Comp. 341] | – | 129.5 to 133 | – | 104 | 1.2 | – | –
4 | O/N=C/Nc1ccc(N2CCCCC2)cc1 [Comp. 294] | – | 162 to 162.5 | – | 103.2 | 4.9 | – | –
5 | CC/C=C/COc1ccc(N/C=N/O)cc1 [Comp. 338] | – | 100 to 102 | – | 119.8 | 0.9 | – | –
6 | N#CCCCOc1ccc(N/C=N/O)cc1 [Comp. 430] | – | 139.5 to 141 | 7.4 | – | – | – | –
7 | O/N=C/Nc1ccc(OCCn2cccc2)cc1 [Comp. 411] | – | 150.5 to 151.5 | 3.1 | – | – | 122.4 | –
8 | O/N=C/Nc1ccc(OCCN2CCOCC2)cc1 [Comp. 355] | – | 141 to 142 | – | 107 | 5.9 | – | –
9 | O/N=C/Nc1ccc(-n2ccc(C(F)(F)F)n2)cc1 [Comp. 273] | – | 165 to 167 | – | 89.2 | 96.8 | – | –
10 | O/N=C/Nc1cccc2c1CCCC2 [Comp. 231] | – | 168.5 to 169 | – | 92.9 | 196 | – | –
11 | Cc1cc(C)c(N/C=N/O)c(Br)c1 [Comp. 45] | – | 163.5 to 164.5 | – | – | – | – | 53.5
12 | O/N=C/Nc1ccc(OCC2CCO2)cc1 (centres unmarked) [Comp. 409] | – | 145 to 146 | 6.7 | – | – | 113.2 | –
13 | CC(C)c1cccc(N/C=N/O)c1 [Comp. 29] | – | 93 to 94.5 | – | – | – | – | 93.6
14 | O/N=C/Nc1cccc(Cl)c1 [Comp. 23] | 476 | 110 to 111.5 | – | – | – | – | 82.8
15 | O=C([O-])CCCCCOc1ccc(N/C=N/O)cc1.[Na+] [Comp. 425] | – | > 300 | 3 | – | – | – | –
16 | O/N=C/Nc1ccc(OCCCCCN2CCCC2)cc1 [Comp. 432] | – | 116.5 to 117.5 | 19.5 | – | – | – | –
17 | O/N=C/Nc1ccc(OCCCN2CCCCC2)cc1 [Comp. 428] | – | 143.5 to 144.5 | 51.5 | – | – | – | –
18 | O/N=C/Nc1ccc(OCc2cccs2)cc1 [Comp. 350] | – | 168 to 168.5 | – | 91 | 1.4 | – | –
19 | CC(=O)OCC(COc1ccc(N/C=N/O)cc1)OC(C)=O (centres unmarked) [Comp. 435] | – | 133 to 134.5 | 2.2 | – | – | – | –
20 | O/N=C/Nc1ccc(OCCCc2ccccn2)cc1 [Comp. 358] | – | 138 to 139.5 | – | 103 | 3.1 | – | –
21 | CC(C)(C)COc1ccc(N/C=N/O)cc1 [Comp. 324] | – | 148.5 to 149.5 | – | 99 | 3.7 | – | –
22 | CN(C)CCSc1ccc(N/C=N/O)cc1 [Comp. 445] | – | 112 | – | – | – | 95.1 | –

Row | Compound | IC50 [1, 2] [nM] | melting point [°C] | IC50 [1, 3] [nM] | Inhibition rate (1 μM) [1, 4] | IC50 [1, 5] [nM] | Inhibition rate (1 μM) ([1]; 1 μM of the subject compound) | Inhibition rate (1 μM) [1, 6]
23 | O/N=C/Nc1ccc(Br)cc1Br [Comp. 34] | 79.7 | 163 to 163.5 | – | – | – | – | 90.6
24 | CCC(C)Sc1ccc(N/C=N/O)cc1 (centres unmarked) [Comp. 449] | – | 119 to 120.5 | 1.8 | – | – | 105.1 | –
25 | O=C1CCCN1CCOc1ccc(N/C=N/O)cc1 [Comp. 407] | – | 127.5 to 129.5 | 4.9 | – | – | 94.3 | –
26 | O/N=C/Nc1ccc(OCCCc2ccccc2)cc1 [Comp. 349] | – | 152.5 to 153 | – | 100 | 1.6 | – | –
27 | Cc1cccc(COc2ccc(N/C=N/O)cc2)c1 [Comp. 391] | – | 161.5 to 162 | – | 113.4 | 2.4 | – | –
28 | Cc1cc(Cl)ccc1N/C=N/O [Comp. 38] | 79.8 | 151 to 152.5 | – | – | – | – | 89.8
29 | O/N=C/Nc1ccc2c(c1)CCC2 [Comp. 238] | – | 142.5 to 144 | – | 101.6 | 30 | – | –
30 | COc1ccc(C)cc1N/C=N/O [Comp. 17] | – | 136.5 to 139 | – | – | – | – | 85.3
31 | COc1ccc(N/C=N/O)c(C)c1 [Comp. 19] | 338 | 144 to 145 | – | – | – | – | 88.0
32 | CCOC(=O)CCCCOc1ccc(N/C=N/O)cc1 [Comp. 433] | – | 125 to 127 | 1.5 | – | – | – | –
33 | O/N=C/Nc1cccc(Oc2ccccc2)c1 [Comp. 124] | 354 | 100 to 102 | – | – | – | – | 92.2
34 | CSc1ccc(COc2ccc(N/C=N/O)cc2)cc1 [Comp. 387] | – | 163 to 164 | – | 97.8 | 0.9 | – | –
35 | CSCCOc1ccc(N/C=N/O)cc1 [Comp. 413] | – | 112 to 113 | 2.3 | – | – | 120.2 | –
36 | CC#CCCOc1ccc(N/C=N/O)cc1 [Comp. 337] | – | 135 to 136.5 | – | 119.4 | 2.1 | – | –
37 | CC(C)(C)Sc1ccc(N/C=N/O)cc1 [Comp. 456] | – | 143 to 145 | 6.3 | – | – | 94.4 | –
38 | CC1(C)OCC(COc2ccc(N/C=N/O)cc2)O1 (centres unmarked) [Comp. 348] | – | 128.5 to 129.5 | – | 103 | 3.4 | – | –
39 | COc1cccc(COc2ccc(N/C=N/O)cc2)c1OC [Comp. 394] | – | 144 to 145 | – | 119.9 | 3.9 | – | –
40 | O/N=C/Nc1ccc(OCCCCCN2CCCCC2)cc1 [Comp. 431] | – | 113 to 115 | 47.7 | – | – | – | –
41 | O/N=C/Nc1ccc(SCc2ccco2)cc1 [Comp. 448] | – | 125 to 126.5 | 1.9 | – | – | 109.8 | –
42 | Cc1ccc(N/C=N/O)cc1F [Comp. 161] | 13.4 | 156 to 157 | – | – | – | – | 88.6
43 | O/N=C/Nc1cccc(C(F)(F)F)c1 [Comp. 46] | 355 | 100.5 to 102 | – | – | – | – | 48.5
44 | CCSCCOc1ccc(N/C=N/O)cc1 [Comp. 361] | – | 104 to 106 | – | 106 | 2.1 | – | –

Row | Compound | IC50 [1, 2] [nM] | melting point [°C] | IC50 [1, 3] [nM] | Inhibition rate (1 μM) [1, 4] | IC50 [1, 5] [nM] | Inhibition rate (1 μM) ([1]; 1 μM of the subject compound) | Inhibition rate (1 μM) [1, 6]
45 | O/N=C/Nc1ccc(Cl)cc1Cl [Comp. 40] | – | 160 to 161 | – | – | – | – | 98.2
46 | O/N=C/Nc1ccc(C(F)(F)F)cc1 [Comp. 27] | 1.7 | 140.5 to 142 | – | – | – | – | 103.3
47 | OCCCSc1ccc(N/C=N/O)cc1 [Comp. 459] | – | 108 to 108.5 | 2.4 | – | – | 119.0 | –
48 | CN(C)CCOc1ccc(N/C=N/O)cc1 [Comp. 399] | – | 118 to 120 | 98 | – | – | 102.3 | –
49 | C/C=C/C=C/COc1ccc(N/C=N/O)cc1 [Comp. 332] | – | 169.5 to 170 | – | 110.6 | 2.1 | – | –
50 | O/N=C/Nc1ccc(OCC2CCCO2)cc1 (centres unmarked) [Comp. 420] | – | 147 to 148.5 | 8 | – | – | 118.6 | –
51 | COCCOCCOc1ccc(N/C=N/O)cc1 [Comp. 347] | – | 80.5 to 81.5 | – | 105 | 3.7 | – | –
52 | CC(C)(C)c1ccccc1N/C=N/O.Cl [Comp. 8] | – | 141 to 142 | – | – | – | – | 99.9
53 | O/N=C/Nc1ccc(OCc2ccoc2)cc1 [Comp. 368] | – | 165.5 to 166 | – | 96 | 2.5 | – | –
54 | O/N=C/Nc1ccc(OCCc2ccsc2)cc1 [Comp. 423] | – | 132 to 134.5 | 2.2 | – | – | 118.4 | –
55 | N#Cc1cccc(COc2ccc(N/C=N/O)cc2)c1 [Comp. 393] | – | 143 to 146 | – | 124.3 | 1.1 | – | –
56 | Cc1cc(N/C=N/O)ccc1Br [Comp. 51] | 21.8 | 157 to 158 | – | – | – | – | 50.2
57 | Cc1ccc(Oc2ccc(N/C=N/O)cc2)cc1 [Comp. 130] | 6.9 | 155 to 156 | – | – | – | – | 116.5
58 | OCC(O)COc1ccc(N/C=N/O)cc1 (centres unmarked) [Comp. 436] | – | 140.5 to 141 | 79.2 | – | – | – | –
59 | O/N=C/Nc1ccc(Cl)cc1F [Comp. 25] | – | 142.5 to 144.5 | – | – | – | – | 87.0
60 | C#CCOc1ccc(N/C=N/O)cc1 [Comp. 227] | – | 139 to 141 | – | 117.8 | 39.7 | – | –
61 | CC(C)Sc1ccc(N/C=N/O)cc1 [Comp. 439] | – | 144.1 to 144.2 | 2.9 | – | – | 92.3 | –
62 | Cc1cc(C)c(N/C=N/O)c(C)c1 [Comp. 72] | – | 168 to 169 | – | – | – | – | 99.2
63 | O/N=C/Nc1ccc(OCCc2cccs2)cc1 [Comp. 422] | – | 132 to 134 | 1.5 | – | – | 121.6 | –
64 | COc1cccc(COc2ccc(N/C=N/O)cc2)c1 [Comp. 390] | – | 152.5 to 153.5 | – | 112.8 | 2.7 | – | –
65 | CCCCc1ccccc1N/C=N/O [Comp. 3] | – | 84.5 to 85.5 | – | – | – | – | 98.9
66 | CN(C)CC(C)(C)COc1ccc(N/C=N/O)cc1 [Comp. 403] | – | 101.5 to 102 | 28.5 | – | – | 118.3 | –
